Test results: US20150315188A1, “COMPOUNDS AND METHODS FOR TREATMENT OF HYPERTENSION” (MEDIVATION TECHNOLOGIES, INC., priority 2012, published 2015)
Where two headings read alike, the source gives them in different places.

What was measured:
[1] = target: T1, Human adrenergic α2A receptor (Homo sapiens, UniProt P08913); test: β-Arrestin GPCR functional assay, adrenergic α2A (Protocol B); type: cell-based; conditions: β-arrestin, antagonist vs nor-epinephrine EC80
T1 sequence (P08913 1-465): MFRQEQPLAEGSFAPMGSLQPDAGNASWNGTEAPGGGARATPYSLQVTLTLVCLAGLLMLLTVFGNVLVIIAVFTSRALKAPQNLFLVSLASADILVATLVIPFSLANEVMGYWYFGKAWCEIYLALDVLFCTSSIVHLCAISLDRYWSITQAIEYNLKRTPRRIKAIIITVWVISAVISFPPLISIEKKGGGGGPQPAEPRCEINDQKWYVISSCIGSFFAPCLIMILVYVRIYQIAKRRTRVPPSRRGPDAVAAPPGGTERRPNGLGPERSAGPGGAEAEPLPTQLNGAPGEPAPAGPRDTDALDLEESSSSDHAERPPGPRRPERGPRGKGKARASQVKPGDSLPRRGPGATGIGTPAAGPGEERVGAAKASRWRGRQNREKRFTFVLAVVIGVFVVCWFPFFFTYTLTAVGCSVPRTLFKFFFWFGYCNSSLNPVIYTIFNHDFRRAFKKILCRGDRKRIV
Experimental: (§1) To evaluate the activity of compounds in β-Arrestin GPCR functional assays, recombinant CHO cell line (DiscoveRX), over expressed with human adrenergic α2A receptor were used. The experiment was done with kit of DiscoveRX as per recommended protocol of the supplier. Cells were harvested from culture flask using cell dissociation solution (CDS) and plated at a density of 12,000 cells/well in CP reagent (supplied with the kit) in a half area 96-well white polystyrene plate. After 24 h incubation at 37° C., compounds at various concentrations in 1% (final) DMSO were charged to the cells for 30 min at 37° C. Active nor-epinephrine (-NE) at its EC80 concentrations (270 nM) were then added to the cells and incubated for another 90 min at 37° C. Detection mix was prepared by mixing of Path Hunter cell assay buffer, Emerald II solution and Galactone star solution in a ratio of 19:5:1 and incubated with the cells for 60 min at RT in the dark. The reading was taken in Envision at luminescence mode. Biochemical assay results are presented as the percent Inhibition in Table B2a, or IC50 values in Table B2b.

[2] = target: T2, Human adrenergic α2B receptor (Homo sapiens, UniProt P18089); test: β-Arrestin GPCR functional assay, adrenergic α2B (Protocol B); type: cell-based; conditions: β-arrestin, antagonist vs nor-epinephrine EC80
T2 sequence (P18089 1-450): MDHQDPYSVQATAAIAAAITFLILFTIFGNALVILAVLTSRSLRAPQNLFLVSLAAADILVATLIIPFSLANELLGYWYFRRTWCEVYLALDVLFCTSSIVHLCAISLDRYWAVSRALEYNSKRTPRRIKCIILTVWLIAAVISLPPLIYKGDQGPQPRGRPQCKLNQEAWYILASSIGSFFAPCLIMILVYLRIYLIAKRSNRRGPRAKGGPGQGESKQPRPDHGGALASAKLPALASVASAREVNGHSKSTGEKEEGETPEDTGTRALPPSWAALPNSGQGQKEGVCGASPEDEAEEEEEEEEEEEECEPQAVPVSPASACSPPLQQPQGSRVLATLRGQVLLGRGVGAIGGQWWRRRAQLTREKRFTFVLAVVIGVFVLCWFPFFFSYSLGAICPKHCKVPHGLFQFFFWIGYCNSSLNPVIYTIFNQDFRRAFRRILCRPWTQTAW
Experimental: as §1, with “α2B” for “α2A”, “(50” for “(270”

[3] = target: T2, Human adrenergic α2B receptor; test: Radioligand binding, adrenergic α2B (Protocol Group B); design: purchased Milipore (Millipore); conditions: Protocol Group B; for Percentage inhibition of ligand binding, Adrenergic α2B (10 nM): 0.01 µM; for Ki: estimated Ki
Procedure, shortened: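 Compounds at various concentrations in 1% DMSO were tested on recombinant membranes in Tris-HCl pH 7.4 buffer containing MgCl2, CaCl2 and 0.2% BSA.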

[4] = target: T1, Human adrenergic α2A receptor; test: Radioligand binding, adrenergic α2A (Protocol Group B); design: purchased Milipore (Millipore); conditions: Protocol Group B; for Percentage inhibition of ligand binding, Adrenergic α2A (0.1 μM) / inhibition at 0.1 µM: 0.1 μM compound; for Percentage inhibition of ligand binding, Adrenergic α2A (0.3 μM) / inhibition at 0.3 µM: 0.3 μM compound; for Ki: estimated Ki; for inhibition at 0.1 µM: read-out: Percentage inhibition of ligand binding, Adrenergic α2A (0.1 μM); for inhibition at 0.3 µM: read-out: Percentage inhibition of ligand binding, Adrenergic α2A (0.3 μM)
Procedure, shortened: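 Compounds (1% DMSO vehicle, various concentrations) competed against 2 nM [^3H]MK-912 on recombinant receptor membranes for 60 min at 25° C, Tris-HCl pH 7.4 buffer with Mg2+, Ca2+, BSA. Bound radioligand filtered and counted; 10 μM rauwolscine set nonspecific binding. Values: percent inhibition of specific binding or estimated Ki.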

[5] = target: T3, Human adrenergic α1B receptor (Homo sapiens, UniProt P35368); test: Radioligand binding, adrenergic α1B (Protocol Group B); design: purchased Milipore (Millipore); conditions: Protocol Group B; for Percentage inhibition of ligand binding, Adrenergic α1B (0.1 μM) / inhibition at 0.1 µM: 0.1 μM compound; for Percentage inhibition of ligand binding, Adrenergic α1B (0.3 μM) / inhibition at 0.3 µM: 0.3 μM compound; for Ki: estimated Ki; for inhibition at 0.1 µM: read-out: Percentage inhibition of ligand binding, Adrenergic α1B (0.1 μM); for inhibition at 0.3 µM: read-out: Percentage inhibition of ligand binding, Adrenergic α1B (0.3 μM)
T3 sequence (P35368 1-520): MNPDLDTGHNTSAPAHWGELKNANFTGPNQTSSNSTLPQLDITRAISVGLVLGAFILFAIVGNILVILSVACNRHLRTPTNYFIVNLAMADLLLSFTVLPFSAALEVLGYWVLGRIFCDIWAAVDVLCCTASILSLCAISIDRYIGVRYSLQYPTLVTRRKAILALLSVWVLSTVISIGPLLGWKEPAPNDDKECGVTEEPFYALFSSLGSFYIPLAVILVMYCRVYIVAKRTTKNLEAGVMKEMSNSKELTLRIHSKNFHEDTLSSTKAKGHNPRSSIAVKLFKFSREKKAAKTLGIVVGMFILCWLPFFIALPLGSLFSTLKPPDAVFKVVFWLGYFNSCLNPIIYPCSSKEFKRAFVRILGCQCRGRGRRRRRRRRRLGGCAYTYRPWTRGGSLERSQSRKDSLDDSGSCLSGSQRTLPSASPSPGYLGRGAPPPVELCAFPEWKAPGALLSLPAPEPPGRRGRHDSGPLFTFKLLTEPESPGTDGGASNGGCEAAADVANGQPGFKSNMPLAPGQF
Procedure, shortened: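 Values are percent inhibition of specific [3H]prazosin (0.3 nM) binding or estimated Ki, from filtration counting. Human α1B recombinant membranes, Tris-HCl pH 7.4 buffer with MgCl2 and EDTA, 60 min at 25 °C, 1% DMSO vehicle; 10 μM prazosin defined nonspecific binding.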

[6] = 10 nM compound, read-out: Percentage inhibition of ligand binding, Adrenergic α2B (10 nM)
[7] = 30 nM compound, read-out: Percentage inhibition of ligand binding, Adrenergic α2B (30 nM)

Row | SMILES | IC50 [1] [nM] | IC50 ([2]; read-out: IC50 Adrenergic α2B) [nM] | Percentage inhibition of ligand binding, Adrenergic α2B (10 nM) ([3]; 10 nM compound) [%] | Percentage inhibition of ligand binding, Adrenergic α2B (30 nM) ([3]; 30 nM compound, 0.03 µM) [%] | Ki ([3]; read-out: Ki α2B) [nM] | Percentage inhibition of ligand binding, Adrenergic α2A (0.1 μM) [4] [%] | Percentage inhibition of ligand binding, Adrenergic α2A (0.3 μM) [4] [%] | Ki [4] [nM] | Percentage inhibition of ligand binding, Adrenergic α1B (0.1 μM) [5] [%] | Percentage inhibition of ligand binding, Adrenergic α1B (0.3 μM) [5] [%] | inhibition at 0.3 µM [5] [%] | other results
1 | Cc1ccc2c(c1)c1c(n2CC(C)(O)c2ccc(F)cc2)CC2CCC1N2C (single isomer, unassigned) [102b] | – | – | – | – | – | – | – | – | – | – | 26 | IC50 ([2]; IC50 Adrenergic α2B): 412 nM; Ki ([3]; Ki α2B): 19.3 nM; inhibition at 0.01 µM ([3]; read-out: Percentage inhibition of ligand binding, Adrenergic α2B (10 nM), 10 nM compound): 28%; inhibition at 0.03 µM ([3]; read-out: Percentage inhibition of ligand binding, Adrenergic α2B (30 nM), 30 nM compound): 56%; inhibition at 0.1 µM ([3]; read-out: Percentage inhibition of ligand binding, Adrenergic α2B (0.1 μM), 0.1 μM compound): 70%; inhibition at 0.1 µM [4]: -1%; inhibition at 0.3 µM [4]: 23%; inhibition at 0.1 µM [5]: 5%
2 | Cc1ccc2c(c1)c1c(n2CC(OC2CCCC2)c2ccncc2)CCN(C)C1 (single isomer, unassigned) [35b] | – | 212 | 65 | – | 3.49 | 25 | 45 | 241 | 5 | 17 | – | Percentage inhibition of ligand binding, Adrenergic α2B (30 nM) ([3]; 30 nM compound): 86%; Percentage inhibition of ligand binding, Adrenergic α2B (0.1 μM) ([3]; 0.1 μM compound): 96%; Ki [5]: 456 nM
3 | Cc1cc(F)c2c(c1)c1c(n2CC(C)(O)c2cccnc2)CC2CCCN2C1 (single isomer, unassigned) [61c] | – | 313 | – | – | 5.4 | – | – | – | – | – | 15 | inhibition at 0.01 µM [3, 6]: 51%; inhibition at 0.03 µM [3, 7]: 77%; inhibition at 0.1 µM ([3]; 0.1 μM compound, read-out: Percentage inhibition of ligand binding, Adrenergic α2B (0.1 μM)): 92%; inhibition at 0.1 µM [4]: 2%; inhibition at 0.3 µM [4]: 41%; inhibition at 0.1 µM [5]: 4%

Continued, in another order:

Row | IC50 [1] [nM] | IC50 ([2]; read-out: IC50 Adrenergic α2B) [nM] | Percentage inhibition of ligand binding, Adrenergic α2B (10 nM) ([3]; 10 nM compound) [%] | Percentage inhibition of ligand binding, Adrenergic α2B (30 nM) ([3]; 30 nM compound, 0.03 µM) [%] | Ki ([3]; read-out: Ki α2B) [nM] | Percentage inhibition of ligand binding, Adrenergic α2A (0.1 μM) [4] [%] | Percentage inhibition of ligand binding, Adrenergic α2A (0.3 μM) [4] [%] | Ki [4] [nM] | Percentage inhibition of ligand binding, Adrenergic α1B (0.1 μM) [5] [%] | Percentage inhibition of ligand binding, Adrenergic α1B (0.3 μM) [5] [%] | inhibition at 0.3 µM [5] [%] | SMILES | other results
4 | 3680 | 44 | 87 | 97 | 1.54 | 57 | 79 | 54.9 | 34 | 67 | – | Cc1ccc2c(c1F)c1c(n2CC(C)(O)c2cccnc2)CCN2CCCC12 (single isomer, unassigned) [87d] | –
5 | 1970 | – | 104 | 115 | 0.85 | 74 | 99 | 26.2 | 15 | 54 | – | CC(O)(Cn1c2c(c3cc(F)cc(Cl)c31)C1CCCN1CC2)c1cccnc1 (single isomer, unassigned) [89d] | –
6 | 1650 | 15 | 98 | 100 | 0.93 | 68 | 85 | 27.3 | 49 | 76 | – | Cc1cc(F)c2c(c1)c1c(n2CC(C)(O)c2ccncc2)CCN2CCCC12 (single isomer, unassigned) [81b] | Percentage inhibition of ligand binding, Adrenergic α2B (0.1 μM) ([3]; 0.1 μM compound, 0.1 µM): 100%; Ki [5]: 35.6 nM
7 | – | 388 | – | – | 1.45 | 52 | 72 | 43.9 | 15 | – | 43 | CC(O)(Cn1c2c(c3cc(F)cc(Cl)c31)C1CCCN1CC2)c1ccncc1 (single isomer, unassigned) [88a] | inhibition at 0.01 µM [3, 6]: 86%; inhibition at 0.03 µM [3, 7]: 93%
8 | – | 381 | 55 | 79 | 8.65 | 25 | 41 | – | 15 | 33 | – | Cc1cc(F)cc2c3c(n(CC(C)(O)c4cccnc4)c12)CCN1CCCC31 (single isomer, unassigned) [75d] | –
